Measured values published in patent US10988474B2, “Compounds acting at multiple prostaglandin receptors giving a general anti-inflammatory response” (ALLERGAN, INC., priority 2011, dated 2021).

Legend:
Format in all cases: cell-based
[1] = molecular target: T1, human prostanoid IP receptor (Homo sapiens, UniProt P43119); assay: FLIPR Ca2+ signaling PG antagonist assay, IP stable cell line; settings: HEK-293 EBNA cells, human recombinant IP, no exogenous G-protein; standard agonist Cicaprost
T1 construct: expressed in transfected cells
T1 sequence (P43119 whole entry): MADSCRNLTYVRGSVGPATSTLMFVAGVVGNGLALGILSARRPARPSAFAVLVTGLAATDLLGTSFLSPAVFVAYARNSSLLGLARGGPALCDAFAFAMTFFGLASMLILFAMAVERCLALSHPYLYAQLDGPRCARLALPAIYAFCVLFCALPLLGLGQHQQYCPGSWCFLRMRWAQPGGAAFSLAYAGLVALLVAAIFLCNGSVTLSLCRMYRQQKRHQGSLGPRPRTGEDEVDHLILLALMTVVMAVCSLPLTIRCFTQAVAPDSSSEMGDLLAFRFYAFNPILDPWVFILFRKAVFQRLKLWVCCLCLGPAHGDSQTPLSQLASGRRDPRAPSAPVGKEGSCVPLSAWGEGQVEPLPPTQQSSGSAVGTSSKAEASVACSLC
Procedure: (§1) The above compounds were tested for PG antagonist activity as follows using human recombinant prostanoid receptor (DP1, EP1-4, FP, IP and TP) stable cell lines: In order to measure the response of Gs and Gi coupled prostanoid receptors as a Ca^2+ signal, chimeric G protein cDNAs were used. Stable cell lines over-expressing human prostanoid DP1, EP1-4, FP, IP, and TP receptors were established as follows:
(§2) Briefly, human prostanoid DP1, EP2, and EP4 receptor cDNAs were co-transfected with chimeric Gqs cDNA containing a haemagglutanin (HA) epitope; human prostanoid EP3 receptors were co-transfected with chimeric Gqi-HA; human EP1, FP, IP, and TP receptor cDNAs were expressed with no exogenous G-proteins. Gqs and Gqi chimeric cDNAs (Molecular Devices, Sunnyvale, Calif., U.S.A.), as well as cDNAs of prostanoid receptors, were cloned into a pCEP4 vector with a hygromycin B selection marker. Transfection into HEK-293 EBNA (Epstein-Barr virus nuclear antigen) cells was achieved by the FuGENE 6 transfection Reagent (Roche Applied Science, Indianapolis, Ind., USA). Stable transfectants were selected according to hygromycin resistance. Because Gqs and Gqi contained an HA epitope, G-protein expression was detected by Western blotting analysis using anti-mouse HA monoclonal antibody and horseradish peroxidase (HRP)-conjugated secondary antibody, while functional expression of prostanoid receptors was detected by FLIPR screening (Matias et al., 2004). These stable cell lines were validated using previously published antagonists at 10 μM against serial dilutions of standard agonists by FLIPR functional assays for Ca^2+ Signaling (as described below).
(§3) Ca^2+ signaling studies were performed using a FLIPR TETRA system (Molecular Devices, Sunnyvale, Calif., USA) in the 384-format. This is a high-throughput instrument for cell-based assays to monitor Ca^2+ signaling associated with GPCRs and ion channels. Cells were seeded at a density of 5×10^4 cells/well in BioCoat poly-D-lysine coated, black wall, clear bottom 384-well plates (BD Biosciences, Franklin lakes, NJ, USA) and allowed to attach overnight in an incubator at 37° C. The cells were then washed twice with HBSS-HEPES buffer (Hanks' balanced salt solution without bicarbonate and phenol red, 20 mM HEPES, pH 7.4) using an ELx405 Select CW Microplate Washer (BioTek, Winooski, Vt., USA). After 60 min of dye-loading in the dark using the Ca^2+-sensitive dye Fluo-4AM (Invitrogen, Carlsbad, Calif., USA), at a final concentration of 2×10^−6M, the plates were washed 4 times with HBSS-HEPES buffer to remove excess dye and leaving 50 μl of buffer in each well. The plates were then placed in the FLIPR TETRA instrument and allowed to equilibrate at 37° C. Compounds were added in a 25 μl volume to each well to give final concentrations of 0.1 μM, 0.3 μM, 1 μM, 3 μM, 10 μM, and 30 μM; or 0.067 μM, 0.1 μM, 0.2 μM, 0.3 μM, 0.67 μM, and 1 μM for cells over-expressing TP receptors. After 4.5 minutes, a 7-point serial dilution of the standard agonist for the corresponding receptor, in a 25 μl volume was injected at the final concentrations from 10^−11M to 10^−5M in 10-fold serial dilution increments for cells expressing human recombinant DP1, EP1, EP2, EP3, EP4, FP, and IP receptors. The dose range for the standard agonist for human recombinant TP receptors was from 10^−12M to 10^−6M. HBSS-HEPES buffer was used as the negative control for the standard agonists. Cells were excited with LED (light emitting diode) excitation at 470-495 nm and emission was measured through an emission filter at 515-575 nm. Assay plates were read for 3.5 minutes using the FLIPR^TETRA. The peak increase in fluorescence intensity was recorded for each well. On each plate, negative controls, dose response of positive controls, and co-treatments of antagonist-agonist for each dose were in triplicates. Standard agonists were as follows: DP=BW 245C, EP1-EP4=PGE2, FP=17-phenyl-PGF2α, IP=Cicaprost, and TP=U-46619. […]

[2] = molecular target: T2, human prostanoid TP receptor (Homo sapiens, UniProt P21731); assay: FLIPR Ca2+ signaling PG antagonist assay, TP stable cell line; settings: HEK-293 EBNA cells, human recombinant TP, no exogenous G-protein; standard agonist U-46619
T2 construct: expressed in transfected cells
T2 sequence (P21731 1-343): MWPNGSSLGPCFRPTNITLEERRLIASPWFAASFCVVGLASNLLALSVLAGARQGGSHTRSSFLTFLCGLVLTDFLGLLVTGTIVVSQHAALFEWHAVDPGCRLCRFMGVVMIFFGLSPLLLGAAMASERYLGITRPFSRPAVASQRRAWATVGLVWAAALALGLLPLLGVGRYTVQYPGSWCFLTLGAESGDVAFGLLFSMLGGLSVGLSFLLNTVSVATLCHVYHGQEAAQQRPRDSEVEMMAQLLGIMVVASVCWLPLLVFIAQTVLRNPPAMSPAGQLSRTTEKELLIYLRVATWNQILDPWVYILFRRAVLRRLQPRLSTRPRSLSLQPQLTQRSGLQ
Procedure: as §1, §2, §3

[3] = molecular target: T3, human prostanoid FP receptor (Homo sapiens, UniProt P43088); assay: FLIPR Ca2+ signaling PG antagonist assay, FP stable cell line; settings: HEK-293 EBNA cells, human recombinant FP, no exogenous G-protein; standard agonist 17-phenyl-PGF2α
T3 construct: expressed in transfected cells
T3 sequence (P43088 whole entry): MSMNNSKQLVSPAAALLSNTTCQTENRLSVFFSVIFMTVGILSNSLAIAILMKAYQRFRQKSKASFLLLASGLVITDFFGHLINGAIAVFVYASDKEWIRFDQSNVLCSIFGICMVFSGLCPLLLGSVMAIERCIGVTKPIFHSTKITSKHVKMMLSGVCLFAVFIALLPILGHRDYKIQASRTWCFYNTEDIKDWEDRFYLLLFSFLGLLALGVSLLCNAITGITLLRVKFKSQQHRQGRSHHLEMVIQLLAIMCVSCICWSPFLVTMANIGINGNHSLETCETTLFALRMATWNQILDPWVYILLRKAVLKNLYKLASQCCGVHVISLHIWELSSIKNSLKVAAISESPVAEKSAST
Procedure: as §1, §2, §3

[4] = molecular target: T4, human prostanoid DP1 receptor (Homo sapiens, UniProt Q13258); assay: FLIPR Ca2+ signaling PG antagonist assay, DP1 stable cell line; settings: HEK-293 EBNA cells, human recombinant DP1 with chimeric Gqs; standard agonist BW 245C; read-out: DP (Kb, PG antagonist activity)
T4 construct: expressed in transfected cells
T4 sequence (Q13258 1-359): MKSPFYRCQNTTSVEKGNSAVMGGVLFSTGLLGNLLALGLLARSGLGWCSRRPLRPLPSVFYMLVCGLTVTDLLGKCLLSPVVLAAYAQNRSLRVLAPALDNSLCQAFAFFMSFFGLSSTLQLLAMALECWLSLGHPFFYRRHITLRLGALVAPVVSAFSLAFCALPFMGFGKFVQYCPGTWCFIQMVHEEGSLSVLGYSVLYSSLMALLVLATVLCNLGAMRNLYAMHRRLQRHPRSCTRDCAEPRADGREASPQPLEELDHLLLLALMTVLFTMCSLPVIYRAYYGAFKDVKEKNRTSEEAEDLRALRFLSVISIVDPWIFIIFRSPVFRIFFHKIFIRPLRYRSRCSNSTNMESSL
Procedure: as §1, §2, §3

| Molecule | Kb [1] | Kb [2] | Kb [3] | Kb [4] |
| --- | --- | --- | --- | --- |
| 1-(5-Bromo-2-Isobutoxy-Benzyl)-1H-Pyrrolo[2,3-B]Pyridine-5-Carboxylic Acid [Example 30] | 6 µM | 0.005 µM |  |  |
| CCC(CC)COc1ccc(OC(F)(F)F)cc1Cn1ccc2cc(C(=O)O)cnc21 [Example 76, 1-[2-(2-Ethyl-Butoxy)-5-Trifluoromethoxy-Benzyl]-1H-Pyrrolo[2,3-B]Pyridine-5-Carboxylic Acid] | 1.4 µM | 0.02 µM |  |  |
| 1-[5-Bromo-2-(2-Ethyl-Butoxy)-Benzyl]-1H-Pyrrolo[2,3-B]Pyridine-5-Carboxylic Acid [Example 31] | 0.52 µM |  |  |  |
| CC(C)COc1ccc(Br)cc1Cn1cc2ccc(C(=O)O)cc2n1 [Example 43, 2-(5-Bromo-2-Isobutoxy-Benzyl)-2H-Indazole-6-Carboxylic Acid] | 4.9 µM | 0.11 µM | 2.2 µM | 2 µM |
